Results: patent US12403128B2, “Compositions and methods for blocking sodium channels” (University of Virginia Patent Foundation, priority 2017, dated 2025)
Structures can show the parent of a compound that is named as a salt. Where two headings read alike, the source gives them in different places. Each block holds one molecule with its values, some of them ahead of it.

How the values were obtained:
[1] = tested on: mice
[2] = tested on: Metrazol-induced clonic seizures; assay: scM (subcutaneous Metrazol) test, mice; assay type: in vivo; conditions: mice; for ED50: Mus musculus
Description: (§1) Evaluation of Compounds in scM Models of Seizures. Subcutaneous injection of the convulsant Metrazol produces clonic seizures in laboratory animals. […] Animals may be pretreated with various doses of the test compound given by ip injection. At a previously determined TPE (time to peak) of the test compound, the dose of Metrazol which will induce convulsions in 97% of animals (CD97:85 mg/kg mice) may be injected into a loose fold of skin in the midline of the neck. The animals may be placed in isolation cages to minimize stress and observed for the next 30 min for the presence or absence of a seizure. An episode of clonic spasms, approximately 3-5 seconds, of the fore and/or hindlimbs, jaws, or vibrissae may be taken as the endpoint. […] The scM test represents acute animal seizures.

[3] = tested on: 6 Hz psychomotor seizures; assay: 6 Hz psychomotor seizure test, mice; assay type: in vivo; conditions: IP; for 6 Hz (32 mA) ED50 / 6 Hz (14 mA) ED50: Table 14; for ED50: Mus musculus
Description: Evaluation of Compounds in 6 Hz Pyschomotor Seizure Test
Compounds were tested using a 6 Hz psychomotor seizure test. […] For example, both the MES and scM models are insensitive to levetiracetam, a compound considered potentially useful in the management of refractory seizures. […] Thus, the 6 Hz test can serve as a therapy resistant screening paradigm of acute seizure activity.

[4] = tested on: maximal electroshock (MES) seizures; assay: MES (maximal electroshock) test, mice; assay type: in vivo; conditions: mice; for ED50: Mus musculus
From the text: Evaluation of Compounds in MES Models of Seizures. […] These seizures are highly reproducible and are electrophysiologically consistent with human seizures. […] Abolition of the hindleg tonic extensor component of the seizure was used as the endpoint.

[5] = target: T1, Nav1.6 (Homo sapiens, UniProt Q9UQD0); assay: High-throughput flux assay, Nav1.6; assay type: cell-based; conditions: human isoform;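 further: IC50 from the flux assay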
Description: (§2) Evaluation of Compounds on Human Isoforms Using a High-Throughput Flux Assay
(§3) Compounds were tested using a high-throughput flux assay across Nav1.5, Nav1.6 and Nav1.7.

[6] = target: T1, Nav1.6; assay: % block of Nav1.6 at 100 μM and IC50 (NaV1.6); assay type: cell-based; conditions: for inhibition at 100 µM: 100 μM compound; for IC50: NaV1.6, Table 2, MV1060-MV1091, unit inferred, read-out: IC50
Description: Evaluation of Compounds for % Block of Nav1.6 at 100 μM
Compounds of the present invention were tested in an assay for % block of Nav1.6 at a concentration of 100 μM compound. Table 1 also indicates the melting point ranges for some compounds.
Some such compounds correspond to a compound of Formula III, wherein R9 is substituted with a halogen, a nitro or a CF3 group. In comparing MV1089, MV1090 and MV1091, it is shown that compounds of Formula III where R3 is H result in higher % block than when R3 is substituted. e.g., by OCH3. In comparing MV1066, MV1084, MV1085, MV1086, MV1087 and MV1088, it is shown that compounds of Formula III where R9 is halogen, a nitro or a CF3 group result in higher % block than when R9 is OCH3, COOH or CH3.

[7] = target: T1, Nav1.6; assay: Qube assay, NaV1.6; assay type: cell-based; conditions: human isoform; read-out: Qube EP IC50 NaV1.6
Description: (§4) Evaluation of Compounds on Human Isoforms Using Qube Assay.
(§5) Compounds were tested using a Qube assay across NaV1.5, NaV1.6 and NaV1.7.

[8] = target: T2, NaV1.5 (Homo sapiens, UniProt Q14524); assay: High-throughput flux assay, NaV1.5; assay type: cell-based; conditions: human isoform;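 further: IC50 from the flux assay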
Description: as §2, §3

[9] = target: T3, NaV1.7 (Homo sapiens, UniProt Q15858); assay: High-throughput flux assay, NaV1.7; assay type: cell-based; conditions: human isoform;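 further: IC50 from the flux assay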
Description: as §2, §3

[10] = target: T2, NaV1.5; assay: Qube assay, NaV1.5; assay type: cell-based; conditions: human isoform; read-out: Qube EP IC50 NaV1.5
Description: as §4, §5

[11] = target: T3, NaV1.7; assay: Qube assay, NaV1.7; assay type: cell-based; conditions: human isoform; read-out: Qube EP IC50 NaV1.7
Description: as §4, §5

[12] = tested on: 6 Hz psychomotor seizures; conditions: cited from earlier work
[13] = in vivo; conditions: mouse
[14] = tested on: corneal kindled mice seizures; assay: Corneal kindled mice model; assay type: in vivo; conditions: for Avg. Score / N/F (animals active over number tested): TPE 0.5 hours
Description: Evaluation of Compounds in Corneal Kindled Mice Model.
Corneal kindled mice are kindled electrically via 3 second stimulation at 8 mA, 60 Hz through corneal electrodes to produce 10 consecutive stage […] seizures according to the Racine scale. Animals are defined as kindled once they progress to a reproducible stage 5 seizure. 72 hours after the mice have been kindled the test substance is administered and, according to a previously determined TPE (time to peak), the animals are electrically stimulated. The animals are considered protected when displaying a stage 3, or lower, seizure.

[15] = Behavioral toxicity (TOX, TD50), rats; assay type: in vivo; conditions: rat, in vivo
[16] = tested on: Metrazol-induced clonic seizures; assay: scM (subcutaneous Metrazol) test, rats; assay type: in vivo; conditions: Rattus norvegicus, rats
Description: as §1

[17] = tested on: maximal electroshock (MES) seizures; assay: MES (maximal electroshock) test, rats; assay type: in vivo; conditions: Rattus norvegicus, rats
From the text: Evaluation of Compounds in MES Models of Seizures. The MES is a model for generalized tonic-clonic seizures and provides an indication of a compound's ability to prevent seizure spread when all neuronal circuits in the brain are maximally active. These seizures are highly reproducible and are electrophysiologically consistent with human seizures. […] Abolition of the hindleg tonic extensor component of the seizure was used as the endpoint.

[18] = IP, Table 14, read-out: MES ED50
[19] = IP, Table 14, read-out: sCM ED50
[20] = 32 mA, Table 14, read-out: 6 Hz (32 mA) ED50
[21] = (14 mA) [sic], Table 14, read-out: 6 Hz (14 mA) ED50

T1 sequence (Q9UQD0 whole entry, canonical isoform): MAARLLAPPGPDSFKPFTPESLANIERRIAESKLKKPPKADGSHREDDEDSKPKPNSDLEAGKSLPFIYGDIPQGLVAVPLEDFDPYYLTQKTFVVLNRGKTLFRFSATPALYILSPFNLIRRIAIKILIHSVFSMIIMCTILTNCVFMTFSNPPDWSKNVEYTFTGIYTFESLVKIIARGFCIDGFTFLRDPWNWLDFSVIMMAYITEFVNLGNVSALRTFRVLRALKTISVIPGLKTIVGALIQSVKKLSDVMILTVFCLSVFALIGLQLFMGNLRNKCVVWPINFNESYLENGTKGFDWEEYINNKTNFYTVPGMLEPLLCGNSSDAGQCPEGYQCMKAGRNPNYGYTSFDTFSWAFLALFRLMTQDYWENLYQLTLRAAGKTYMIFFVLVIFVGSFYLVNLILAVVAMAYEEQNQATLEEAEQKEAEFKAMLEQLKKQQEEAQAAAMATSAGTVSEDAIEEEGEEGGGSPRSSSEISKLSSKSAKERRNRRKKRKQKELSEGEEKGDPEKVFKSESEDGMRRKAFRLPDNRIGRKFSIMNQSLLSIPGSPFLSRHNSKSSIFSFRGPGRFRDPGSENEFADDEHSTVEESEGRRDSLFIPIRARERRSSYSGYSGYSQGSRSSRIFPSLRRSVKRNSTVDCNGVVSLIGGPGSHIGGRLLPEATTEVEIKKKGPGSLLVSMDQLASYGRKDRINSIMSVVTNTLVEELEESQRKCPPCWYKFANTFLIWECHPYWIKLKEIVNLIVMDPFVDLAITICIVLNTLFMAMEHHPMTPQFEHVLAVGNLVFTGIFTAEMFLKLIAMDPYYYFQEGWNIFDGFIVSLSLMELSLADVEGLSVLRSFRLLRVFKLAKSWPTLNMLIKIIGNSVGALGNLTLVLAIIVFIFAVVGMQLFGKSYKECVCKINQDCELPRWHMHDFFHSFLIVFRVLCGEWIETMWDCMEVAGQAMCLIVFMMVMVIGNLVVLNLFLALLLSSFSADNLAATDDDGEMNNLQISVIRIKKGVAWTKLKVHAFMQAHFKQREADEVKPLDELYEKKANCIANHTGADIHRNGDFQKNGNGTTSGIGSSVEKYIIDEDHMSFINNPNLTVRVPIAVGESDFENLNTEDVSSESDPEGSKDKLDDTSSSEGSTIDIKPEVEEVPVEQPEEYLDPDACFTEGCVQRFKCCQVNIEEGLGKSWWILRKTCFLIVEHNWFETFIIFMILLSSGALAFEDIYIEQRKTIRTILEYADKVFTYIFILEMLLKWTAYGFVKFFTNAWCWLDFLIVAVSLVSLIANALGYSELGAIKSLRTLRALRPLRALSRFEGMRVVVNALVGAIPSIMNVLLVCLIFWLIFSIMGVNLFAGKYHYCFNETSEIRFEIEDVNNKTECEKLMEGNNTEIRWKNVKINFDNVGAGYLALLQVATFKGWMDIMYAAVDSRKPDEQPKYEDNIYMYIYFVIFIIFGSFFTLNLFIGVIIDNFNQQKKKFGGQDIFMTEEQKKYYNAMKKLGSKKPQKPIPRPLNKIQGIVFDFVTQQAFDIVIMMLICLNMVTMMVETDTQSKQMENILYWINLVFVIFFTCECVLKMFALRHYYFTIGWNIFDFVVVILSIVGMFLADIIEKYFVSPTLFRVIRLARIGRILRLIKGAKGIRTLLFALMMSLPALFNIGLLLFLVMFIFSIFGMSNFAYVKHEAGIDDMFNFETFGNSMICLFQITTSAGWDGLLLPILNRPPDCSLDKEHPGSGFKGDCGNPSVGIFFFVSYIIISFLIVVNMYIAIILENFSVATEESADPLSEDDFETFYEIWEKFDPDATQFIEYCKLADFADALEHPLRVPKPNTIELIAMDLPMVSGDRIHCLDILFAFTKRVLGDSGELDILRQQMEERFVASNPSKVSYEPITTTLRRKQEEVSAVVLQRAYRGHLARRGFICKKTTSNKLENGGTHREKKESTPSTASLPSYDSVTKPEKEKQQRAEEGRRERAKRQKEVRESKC
T2 sequence (Q14524 whole entry, canonical isoform): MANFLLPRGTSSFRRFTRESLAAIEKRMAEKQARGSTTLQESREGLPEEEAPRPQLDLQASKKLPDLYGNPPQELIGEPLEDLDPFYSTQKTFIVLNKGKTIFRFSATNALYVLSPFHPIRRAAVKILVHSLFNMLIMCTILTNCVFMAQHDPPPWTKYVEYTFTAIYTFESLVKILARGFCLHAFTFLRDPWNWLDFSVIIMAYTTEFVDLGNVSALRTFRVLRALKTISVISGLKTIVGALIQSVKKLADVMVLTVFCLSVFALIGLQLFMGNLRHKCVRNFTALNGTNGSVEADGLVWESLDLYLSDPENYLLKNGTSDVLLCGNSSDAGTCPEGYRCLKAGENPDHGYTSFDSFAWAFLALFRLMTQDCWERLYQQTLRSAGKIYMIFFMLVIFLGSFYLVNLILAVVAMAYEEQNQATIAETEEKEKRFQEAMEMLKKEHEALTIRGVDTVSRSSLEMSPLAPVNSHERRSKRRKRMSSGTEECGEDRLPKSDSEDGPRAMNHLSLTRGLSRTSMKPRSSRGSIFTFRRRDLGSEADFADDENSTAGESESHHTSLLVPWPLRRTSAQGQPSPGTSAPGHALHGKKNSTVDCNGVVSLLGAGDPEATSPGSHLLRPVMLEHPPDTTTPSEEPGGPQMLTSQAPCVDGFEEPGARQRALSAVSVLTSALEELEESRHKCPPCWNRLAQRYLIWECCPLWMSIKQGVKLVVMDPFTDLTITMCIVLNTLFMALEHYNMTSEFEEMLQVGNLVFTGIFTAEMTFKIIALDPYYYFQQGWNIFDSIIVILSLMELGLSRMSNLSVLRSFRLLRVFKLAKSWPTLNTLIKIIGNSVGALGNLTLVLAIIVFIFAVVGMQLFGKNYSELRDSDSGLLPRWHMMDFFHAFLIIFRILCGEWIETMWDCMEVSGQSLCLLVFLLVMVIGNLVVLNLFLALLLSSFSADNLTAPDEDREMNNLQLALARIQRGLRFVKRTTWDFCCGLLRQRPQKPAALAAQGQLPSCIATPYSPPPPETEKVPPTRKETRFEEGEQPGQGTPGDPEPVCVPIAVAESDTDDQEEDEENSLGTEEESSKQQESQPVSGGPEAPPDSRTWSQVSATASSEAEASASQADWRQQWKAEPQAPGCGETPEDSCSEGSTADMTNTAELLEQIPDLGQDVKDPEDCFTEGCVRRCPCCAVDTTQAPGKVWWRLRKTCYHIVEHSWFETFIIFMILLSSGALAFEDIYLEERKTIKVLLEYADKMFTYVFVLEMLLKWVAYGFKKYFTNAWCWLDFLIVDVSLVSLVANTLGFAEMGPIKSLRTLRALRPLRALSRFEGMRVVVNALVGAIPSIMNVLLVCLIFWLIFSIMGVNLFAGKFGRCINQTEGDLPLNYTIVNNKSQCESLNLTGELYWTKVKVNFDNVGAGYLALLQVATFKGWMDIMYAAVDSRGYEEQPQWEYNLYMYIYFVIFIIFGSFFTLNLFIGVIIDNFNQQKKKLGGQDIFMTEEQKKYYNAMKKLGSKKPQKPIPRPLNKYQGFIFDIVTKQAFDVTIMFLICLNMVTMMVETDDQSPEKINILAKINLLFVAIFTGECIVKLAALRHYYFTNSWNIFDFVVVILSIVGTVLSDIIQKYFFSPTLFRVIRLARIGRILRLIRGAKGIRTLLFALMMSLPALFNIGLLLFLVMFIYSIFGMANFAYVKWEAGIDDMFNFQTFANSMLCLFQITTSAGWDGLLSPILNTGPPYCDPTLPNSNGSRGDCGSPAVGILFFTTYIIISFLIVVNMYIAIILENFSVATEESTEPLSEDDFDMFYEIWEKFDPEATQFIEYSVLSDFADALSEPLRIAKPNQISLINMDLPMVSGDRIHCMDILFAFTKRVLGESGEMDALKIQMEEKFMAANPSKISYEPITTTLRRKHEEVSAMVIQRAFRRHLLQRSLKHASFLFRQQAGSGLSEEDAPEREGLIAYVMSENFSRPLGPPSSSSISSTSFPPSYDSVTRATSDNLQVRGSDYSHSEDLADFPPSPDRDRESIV

SMILES: NC(=O)N1c2ccccc2C=Cc2ccccc21 [Carbamazepine, reference compound]
- TOX (TD50) ([1]; mice, IP, Table 14): 45.5 mg/kg
- sCM ED50 ([2]; IP, Table 14): None
- 6 Hz (32 mA) ED50 ([3]; 32 mA): None
- 6 Hz (14 mA) ED50 ([3]; (14 mA) [sic]): None
- ED50 [4, 18]: 7.8 mg/kg

- IC50 [5]: 5670 nM
- inhibition at 100 µM [6]: 90%
- IC50 [7]: 8.24 µM
- IC50 [9]: 23.8 µM
- IC50 [11]: 30 µM
SMILES: CC(=O)Nc1ccc(-c2nc(C)c(-c3ccccc3)[nH]2)cc1 [MV1509, N-2,4-[3-methyl-4-phenyl-1H-imidazol-2-yl)phenyl]acetamide hydrochloride]
- IC50 [8]: 7.94 µM
- IC50 [10]: 15.9 µM

SMILES: CC[C@@H](C(N)=O)N1CCCC1=O [levetiracetam]
- activity in 6 Hz test ([12]; 44 mA): need higher doses

SMILES: CCCC(CCC)C(=O)O [Valproic Acid, reference compound]
- activity in 6 Hz test ([12]; 44 mA): need higher doses
- ED50 [2, 19]: 220 mg/kg
- ED50 [3, 20]: 126 mg/kg
- ED50 [3, 21]: 310 mg/kg
- ED50 [4, 18]: 263 mg/kg

SMILES: O=C1NC(=O)C(c2ccccc2)(c2ccccc2)N1 [Phenytoin, reference compound]
- activity in 6 Hz test ([12]; 32 mA): lose activity
- sCM ED50 ([2]; IP, Table 14): None
- 6 Hz (32 mA) ED50 ([3]; 32 mA): None
- 6 Hz (14 mA) ED50 ([3]; (14 mA) [sic]): None

SMILES: Nc1nnc(-c2cccc(Cl)c2Cl)c(N)n1 [Lamotrigine, reference compound]
- activity in 6 Hz test ([12]; 32 mA): lose activity
- sCM ED50 ([2]; IP, Table 14): None
- 6 Hz (32 mA) ED50 ([3]; 32 mA): None
- 6 Hz (14 mA) ED50 ([3]; (14 mA) [sic]): None
- ED50 [4, 18]: 7.5 mg/kg

SMILES: COc1ccc(-c2nc3ccccc3[nH]2)cc1 [MV1062, 2-(4-methoxyphenyl)-1H-1,3-benzodiazole]
- inhibition at 100 µM [6]: 70%
- IC50 [6]: 90.2 µM
- TD50 [13]: 601 mg/kg
- TD50 ([13]; ip): 601 mg/kg
- Avg. Score ([14]; 20 mg/kg): 5.0
- N/F (animals active over number tested) ([14]; 20 mg/kg): 0/8
- Avg. Score ([14]; 55 mg/kg): 4.0
- N/F (animals active over number tested) ([14]; 55 mg/kg): 3/8
- Avg. Score ([14]; 100 mg/kg): 1.375
- N/F (animals active over number tested) ([14]; 100 mg/kg): 7/8
- ED50 ([14]; Mus musculus): 63.6 mg/kg
- ED50 ([2]; sc, read-out: ED50 (scM test)): 206 mg/kg
- ED50 [2, 19]: 206 mg/kg
- ED50 [3, 20]: 69.6 mg/kg
- ED50 [3, 21]: 80.5 mg/kg
- TD50 ([15]; IP, Table 15, read-out: TOX TD50): > 500 mg/kg
- TD50 ([15]; read-out: TD50 (behavioral toxic dose)): > 500 mg/kg
- ED50 ([16]; sc, read-out: ED50 (scM test)): 123 mg/kg
- ED50 ([16]; IP, Table 15, read-out: sCM ED50): 122 mg/kg
- ED50 [4, 18]: 30.8 mg/kg
- ED50 ([4]; read-out: ED50 (MES test)): 30.8 mg/kg
- ED50 ([17]; IP, Table 15, read-out: MES ED50): 10.8 mg/kg
- ED50 ([17]; read-out: ED50 (MES test)): 10.8 mg/kg

- IC50 [5]: 1880 nM
- inhibition at 100 µM [6]: 90%
- IC50 [7]: 3.99 µM
- IC50 [9]: 4.58 µM
- IC50 [11]: 11.5 µM
SMILES: COc1ccc(-c2nc(C)c(-c3ccccc3)[nH]2)cc1O [MV1508, 2-methoxy-5-(5-methyl-4-phenyl-1H-imidazol-2-yl)phenol hydrochloride]
- IC50 [8]: 2.61 µM
- IC50 [10]: 11.9 µM

SMILES: CCC1(C)CC(=O)NC1=O (stereo not shown) [Ethosuximide, reference compound]
- activity in 6 Hz test ([12]; 44 mA): ineffective
- TOX (TD50) ([1]; mouse, in vivo, ip): 341 mg/kg
- ED50 [2, 19]: 136 mg/kg
- 6 Hz (14 mA) ED50 ([3]; (14 mA) [sic]): None
- ED50 [3, 20]: 167 mg/kg
- MES ED50 ([4]; IP, Table 14): None

- inhibition at 100 µM [6]: 30%
- IC50 [6]: > 100 µM
SMILES: Cc1ccc(-c2nc3ccccc3[nH]2)cc1 [MV1083, 2-(4-methylphenyl)-1H-1,3-benzodiazole]

- inhibition at 100 µM [6]: 45%
SMILES: Cc1nc(-c2ccccc2Cl)[nH]c1C [MV1367, 2-(2-CHLORO-PHENYL)-4,5-DIMETHYL-1H-IMIDAZOLE OXALATE]

- inhibition at 100 µM [6]: 25%
SMILES: COc1cccc(-c2ncc[nH]2)c1 [MV1351, 2-(3-METHOXY-PHENYL)-1H-IMIDAZOLE OXALATE]

- inhibition at 100 µM [6]: 30%
SMILES: COc1ccccc1-c1ncc[nH]1 [MV1352, 2-(2-METHOXY-PHENYL)-1H-IMIDAZOLE OXALATE]

SMILES: COc1ccc(C(=O)Nc2ccc(-c3c[nH]c(-c4ccccc4)n3)cc2)cc1 [MV1303, 4-METHOXY-N-[4-[2-PHENYL-1H-IMIDAZOL-4-YL]-PHENYL]-BENZAMIDE HYDROCHLORIDE]
- inhibition at 100 µM [6]: 0%

- inhibition at 100 µM [6]: 75%
SMILES: COc1ccc(C(=O)Nc2cccc(-c3c[nH]c(-c4ccccc4)n3)c2)cc1 [MV1309, 4-METHOXY-N-[3-[2-PHENYL-1H-IMIDAZOL-4-YL]-PHENYL]-BENZAMIDE HYDROCHLORIDE]

- inhibition at 100 µM [6]: 15%
- IC50 [6]: > 100 µM
SMILES: FC(F)(F)c1ccc(-c2nc3ccccc3[nH]2)cc1 [MV1077, 2-(4-trifluoromethyl-phenyl)-1H-1,3-benzodiazole]

- IC50 [5]: 2740 nM
- inhibition at 100 µM [6]: 90%
- IC50 [7]: 7.43 µM
- IC50 [9]: 7.98 µM
- IC50 [11]: 14.8 µM
SMILES: COc1ccc(-c2nc(C)c(-c3ccccc3)[nH]2)cc1 [MV1501, 2-(4-methoxyphenyl)-4-methyl-5-phenyl-1H-imidazole hydrochloride]
- IC50 [8]: 6.24 µM
- IC50 [10]: 27 µM

- inhibition at 100 µM [6]: 70%
SMILES: O=[N+]([O-])c1ccc2nc(-c3ccccc3)[nH]c2c1 [MV1084, 6-nitro-2-phenyl-1H-1,3-benzodiazole]

- inhibition at 100 µM [6]: 0%
- IC50 [6]: > 100 µM
SMILES: O=C(O)c1ccc2nc(-c3ccccc3)[nH]c2c1 [MV1087, 2-phenyl-1H-1,3-benzodiazole-6-carboxylic acid]
